{
  "source": "patent US6369107B1",
  "about": "“Combined use of diclofenac and tribenoside to treat osteoarthritis” (KS Biomedix Ltd., priority 1994, dated 2002)",
  "key": {"[1]": {"test_system": "matrix of cartilages of the tibial plateau of STR/ORT mice", "assay": "Quantitative interference microscopy of dry mass per unit area in the tibial plateau cartilage matrix of treated STR/ORT mice", "format": "in vivo", "conditions": "for effect on the dry mass per unit area (and therefore water content) of medial cartilage: feeding STR/ORT mice", "from_the_text": "The extra-cellular factor was studied by quantitative interference microscopy, as described by Ross, “Phase Contrast and Interference Microscopy for Cell Biologists” Arnold: London, p.36 (1967). This form of microscopy allows the investigator to measure the dry mass, per unit area (Cs), in selected regions of a section or of a cell. This measurement then allows the assessment of water content (Cw): […]"}, "STR/ORT mice [2]": {"test_system": "STR/ORT mice", "assay": "Development of osteoarthritis / cartilage damage in STR/ORT mice", "format": "in vivo", "conditions": "fraction of mice", "from_the_text": "The present invention is based on the postulate that two influences are involved in the development of OA: a cellular and an extracellular factor."}, "STR/ORT mice [3]": {"test_system": "STR/ORT mice", "conditions": "mice given the drug; background; cited from earlier work"}, "monoamine oxidase (MAO) [4]": {"test_system": "monoamine oxidase (MAO)", "conditions": "mice given the drug; background, Chambers et al 1992; cited from earlier work"}, "monoamine oxidase (MAO) [5]": {"test_system": "monoamine oxidase (MAO)", "assay": "Localisation of monoamine oxidase (MAO) activity in chondrocytes of potentially osteoarthritic cartilage of mice", "format": "in vivo", "conditions": "feeding STR/ORT mice", "from_the_text": "In normal articular cartilage (human as well as murine), monoamine oxidase in chondrocytes can be found located precisely in mitochondria. During the development of the natural disease in mice, these granules become larger and apparently burst, the monoamine oxidase (MAO) activity becomes distributed through the cytoplasm of the chondrocytes and even into the surrounding matrix. This was described by Chambers et al, Int. J. Exp. Path. 73:115-123 (1992), who related the MAO activity in the medial as against that in the (normal) lateral cartilage in untreated mice and in those treated with diclofenac.\nThere was no sign of activity in the general cytoplasm or in the matrix.\nResults are shown in Table 1, i.e. the dry mass per μm in the matrix of cartilages of the tibial plateau of STR/ORT mice after various treatments. Three mice were treated with diclofenac (Df) alone, four with tribenoside (Tb) alone, and four with both (Df+Tb)."}, "[6]": {"conditions": "STR/ORT mice, matrix of tibial plateau cartilage, one line per mouse, * duplicate sections"}},
  "note": "Values joined by “and” are separate entries in the source; they are usually repeats but may differ in a detail not shown here. Equal entries are not always repeated.",
  "data": [
    {"compound": "O=C(O)Cc1ccccc1Nc1c(Cl)cccc1Cl", "note": "[Df, diclofenac sodium]", "values": [
      {"measurement": "Mass pg/unit area in the medial cartilage", "setting": "[1]; [6]", "value": "0.51 pg/unit area and 0.50 pg/unit area and 0.52 pg/unit area"},
      {"measurement": "effect on the dry mass per unit area (and therefore water content) of medial cartilage", "setting": "[1]", "value": "no effect"},
      {"measurement": "mice having severe OA", "setting": "STR/ORT mice [2]", "value": "at least 9/10"},
      {"measurement": "development of OA", "setting": "STR/ORT mice [3]", "value": "did not stop the development of OA"},
      {"measurement": "localisation of the MAO in the potentially osteoarthritic cartilage", "setting": "monoamine oxidase (MAO) [4]", "value": "marked improvement"}
    ]},
    {"compound": "CCOC1O[C@H]([C@@H](COCc2ccccc2)OCc2ccccc2)[C@H](OCc2ccccc2)[C@H]1O", "note": "(stereo partly drawn) [Tb, tribenoside]", "values": [
      {"measurement": "Mass pg/unit area in the lateral cartilage", "setting": "[1]; [6]", "value": 2.84, "unit": "pg/unit area"},
      {"measurement": "Mass pg/unit area in the medial cartilage", "setting": "[1]; [6]", "value": "2.54 pg/unit area and 2.76 pg/unit area and 2.58 pg/unit area and 2.77 pg/unit area and 2.29 pg/unit area and 2.44 pg/unit area and 3.14 pg/unit area"},
      {"measurement": "effect on the dry mass per unit area (and therefore water content) of medial cartilage", "setting": "[1]", "value": "markedly increased"},
      {"measurement": "localisation of MAO activity / MAO activity in the medial cartilage", "setting": "monoamine oxidase (MAO) [5]", "value": "did not improve"}
    ]}
  ]
}
